Columns and labels:
LdPAT4-DHHC [1] = biological target: T1, LdPAT4-DHHC (Leishmania donovani, UniProt A0A3S7X1Q3); experiment: click-chemistry metabolic labelling of E. coli expressing LdPAT4-DHHC, Oregon Green […] fluorometry; assay type: cell-based; conditions: substrate Alk-C16 100 uM, induced E. coli Rosetta cells, 37 C, 6 h; 2-BMP concentration not stated
T1 construct: gene LdCL_280025100; DHHC domain only (423 bp), N-terminal GST tag (pGEX-4T-1, BamHI/SalI), E. coli Rosetta, ~40 kDa with tag
T1 sequence (A0A3S7X1Q3 268-407): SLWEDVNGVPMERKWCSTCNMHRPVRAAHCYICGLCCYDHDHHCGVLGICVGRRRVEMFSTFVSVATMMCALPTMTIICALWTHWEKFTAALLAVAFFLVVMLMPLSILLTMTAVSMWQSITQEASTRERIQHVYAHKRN

LdPAT4-DHHC [2] = biological target: T1, LdPAT4-DHHC; experiment: as above; assay type: cell-based; conditions: 100 uM Alk-C16, induced E. coli Rosetta cells, 37 C, 6 h; labelled compound (alkyne probe)

CCCCCCCCCCCCCCC(Br)C(=O)O (centres unmarked) [2-BMP]
reduction in fluorescence intensity (LdPAT4-DHHC [1]): following 2-BMP treatment of induced cells, reduction in fluorescence intensity was detected

C#CCCCCCCCCCCCCCC(=O)O [Alk-C16]
click-chemistry metabolic labelling of E. coli expressing LdPAT4-DHHC, Oregon Gr (LdPAT4-DHHC [2]): predominant incorporation of palmitic acid analogs into transformed E. coli
